# Results from US6126918A, “Screening assays to identify therapeutic agents for amyloidosis” (Imperial College Innovations Limited, priority 1993, dated 2000).
# Like-named read-outs stand apart in the source and are kept apart here.
# How the values were obtained:
# [1] = tested on: amyloid fibrils of AA, AL and apoAI type; assay: Proteinase digestion of ex vivo amyloid fibrils (AA, AL, apoAI) in vitro; format: biochemical, human; details: for Effect on fibril digestion by proteinases: protein added to incubation mixtures, 37° C.
# [2] = tested on: AA amyloid fibrils; assay: Trypsin or chymotrypsin digestion of AA amyloid fibrils, SDS-PAGE quantification of AA protein band; format: biochemical, human; details: 6 hours at 37° C.
# Protocol: (b) AA amyloid fibrils obtained ex vivo were incubated for 6 hours at 37° C. with trypsin or chymotrypsin at a substrate:enzyme ratio of 10:1 in the presence or absence of SAP and with or without MOβDG, according to the general protocol given above. The incubation mixtures were then analysed by Coomassie blue stained SDS-PAGE with quantification of the AA protein band. Intensity of this band after incubation without trypsin was taken as 100%.
# [3] = tested on: Alzheimer's disease β-protein fibrils; assay: Pronase digestion of Alzheimer's disease β-protein fibrils, SDS-PAGE; format: biochemical; details: for Digestion of β-protein: SAP 10 μg/ml, pronase 1 μg/ml, 1 hour at 37° C.
# Protocol: Alzheimer's disease β-protein, prepared as a synthetic peptide containing residues 1-40 was obtained from California Peptide Research, and was dissolved in pure water at 4 mg/ml, that is 1 mM. Some was kept at 4° C. ("fresh") and some was aged by incubation at 37° C. for 7 days. It is known that fibrils form very slowly in the cold but that "ageing" is associated with marked amyloid fibril formation, and this was confirmed in the present case by Congo red staining and by direct electron microscopy.
# (a) β-protein solutions obtained as described above were diluted to 0.2 mg/ml in TC immediately before use. Highly purified human SAP in solution in 138 mM NaCl, 10 mM Tris, pH 8.0 (TN) was diluted in TN to 0.1 mg/ml, 0.5 mg/ml and 2.5 mg/ml Pronase from S. griseus was obtained from Boehringer Mannheim and was freshly prepared at 0.04 and 0.004 mg/ml in TC just before use.
# Aliquots, 50 μl, of aged or fresh β-protein were mixed with 20 μl volumes of TN alone or SAP at the different concentrations shown in FIG. 5 and with 5 μl of 10 mM CaCl2, and then incubated with shaking at 37° C. for 1 hour. TC alone or pronase in TC at 0.04 or 0.004 mg/ml were added in a volume of 25 μl and incubation continued for a further 1 hour at 37° C. Digestion was then stopped by addition of an equal volume of reducing SDS-PAGE sample buffer (20 mM Tris pH 8.0, 2 mM EDTA, 5% w/v SDS, 10% w/v 2-mercaptoethanol, 0.05% w/v bromophenol blue, 20% w/v glycerol) and boiling for 10 minutes. These samples were finally analysed in reduced SDS homogeneous 15% PAGE, stained with Brilliant blue R350. The proportion of the β-protein present in each track was estimated by scanning densitometry with reference to the no pronase control which was taken as 100%. The proportion digested was calculated by subtraction and plotted against the SAP concentration.
# (d) Abrogation of protection by MOβDG: β-protein fibrils at 100 μg/ml were incubated for 1 hour at 37° C. with pronase at 1 μg/ml, in the presence or absence of SAP and with or without different concentrations of MOβDG. The extent of digestion of the β-protein was then estimated by SDS-PAGE analysis.
# [4] = molecular target: T1, SAP binding to AA type amyloid fibrils (Homo sapiens, UniProt P02743); assay: Inhibition of SAP binding to amyloid fibrils (125I-SAP); details: concentrations above about 2 mM in the final incubation mixture
# T1 construct: isolated at greater than 99% purity from pooled human ascites and pleural effusion fluids; from tissue; host or cells: SAP from pooled human ascites and pleural effusion fluids; fibrils from patients' organs such as spleen
# Protocol: Amyloid fibrils are isolated from the organs, such as the spleen, obtained post mortem from patients with amyloidosis of AA or AL type, using the water extraction method of Pras et al. This method is modified in that the initial saline homogenizations are conducted using Tris buffered saline containing 10 mM EDTA to ensure complete dissociation of all endogenous SAP [56]. The fibril-rich water extract is mixed with Tris buffered saline containing calcium chloride to bring the final salt concentration to 138 m NaCl, 10 mM Tris, 2 mM CaCl2, pH 8.0, and this is then centrifuged at 1500 g for 5 minutes to sediment the fibrils. These are then resuspended in Tris saline calcium buffer, pH 8.0, at the same concentration as above (TC buffer), so as to provide a suitable suspension, for example, A280 =0.255, A320 =0.132, and this is stored at 4° C. […] Agents to be tested are dissolved at a concentration of about 10 mM in TC, or in 1:10 DMSO in water or TC. If they are active in inhibiting SAP binding they are tested at a range of lower concentrations to determine the minimal inhibitory dose.
# For the assay itself 10 μl of labelled SAP is mixed with 50 μl of amyloid fibril suspension and 40 μl of the test substance and incubated, with mixing, for 60 minutes at room temperature. […] The fibrils are washed with TC containing 1% w/v BSA and the radioactive SAP bound is measured. […]
# [5] = molecular target: T2, SAP (Homo sapiens, UniProt P02743); assay: Binding of DNA by SAP; details: unpublished observations
# T2 construct: homopentamer, can form decamer; calcium-dependent ligand site
# Description: SAP also binds polyanions such as heparan sulphate, dermatan sulphate and DNA [4] in the presence of calcium. […] There are several basic regions in SAP, for example Arg120, Arg77, His78, Lys79 and Arg57, which are on the same surface as the calcium and PE binding sites. It seems more likely that the phosphate backbone of DNA and the sulphated polysaccharides bind both at the calciums and at the basic sites, possibly on more than one subunit simultaneously. These extensive interactions probably account for the ability of SAP to displace from DNA the H1-type histones in chromatin [5]. The sequence differences in the basic regions and in the calcium binding region could explain the variable affinity for DNA shown by different pentraxins. Human CRP, for instance, only binds DNA at low, non-physiological ionic strength. […] Similar effects are observed for SAP binding to immobilised PE [unpublished observations]. As we can find no evidence for a second binding site for PE or MOβDG in the present experimental conditions, these effects must be mediated through inter-subunit interactions.
# [6] = molecular target: T2, SAP; details: neutral solutions in the presence of calcium ions; reference [44]; cited from earlier work
# [7] = molecular target: T2, SAP; assay: Calcium-dependent aggregation of SAP in neutral solution; details: neutral solutions in the presence of calcium ions; unpublished observations
# Description: SAP rapidly aggregates in neutral solutions in the presence of calcium ions presumably due to intermolecular interactions involving the surface of the decamer with the exposed calcium binding site. […] Similarly they compete for the calcium site with Glu167 which is an important lattice contact in the pentamer crystals.
# T2 sequence (P02743 20-223): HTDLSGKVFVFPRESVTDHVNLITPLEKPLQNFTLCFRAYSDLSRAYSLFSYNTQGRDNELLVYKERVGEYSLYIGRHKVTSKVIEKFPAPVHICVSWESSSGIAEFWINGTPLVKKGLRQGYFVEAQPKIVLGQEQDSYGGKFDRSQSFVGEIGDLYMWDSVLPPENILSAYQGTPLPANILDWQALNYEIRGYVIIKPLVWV
# T1 sequence (P02743 20-223): as above
compound,measurement,setting,value
"CRP: C-reactive protein, control protein that does not bind to amyloid fibrils",Effect on fibril digestion by proteinases,[1],had no effect on their digestion
"SAP: Serum amyloid P component, a normal human plasma protein; highly purified human SAP",% AA protein remaining,"[2]; Chymotrypsin, SAP 10 μg/ml, no MOβDG",20%
same,% AA protein remaining,"[2]; Chymotrypsin, SAP 50 μg/ml, no MOβDG",60%
same,% AA protein remaining,"[2]; Trypsin, SAP 10 μg/ml, no MOβDG",20%
same,% AA protein remaining,"[2]; Trypsin, SAP 50 μg/ml, no MOβDG",50%
same,Digestion of β-protein,[3]; MOβDG 0 mM,60%
same,Protection of β-protein amyloid fibrils from proteolysis,[3]; fibrils produced in vitro from synthetic β-protein,protected the β-protein amyloid fibrils from proteolysis
same,Effect on fibril digestion by proteinases,[1],greatly reduced fibril digestion
"CO[C@@H]1O[C@@H]2CO[C@@](C)(C(=O)O)O[C@@H]2[C@H](O)[C@H]1O [MOβDG, methyl 4,6-O-(1-carboxyethylidene)-β-D-galactopyranoside]",Effect on SAP binding to amyloid fibrils,[4],reduces binding to background levels
same,% AA protein remaining,"[2]; Chymotrypsin, SAP 50 μg/ml plus MOβDG 1 mM",10%
same,% AA protein remaining,"[2]; Trypsin, SAP 50 μg/ml plus MOβDG 1 mM",5%
same,Digestion of β-protein,[3]; MOβDG 1.3 mM,75%
same,Digestion of β-protein,[3]; MOβDG 6.7 mM,85%
same,Digestion of β-protein,[3]; MOβDG 33.3 mM,90%
same,Protection by SAP in the presence of MOβDG,[3]; β-protein amyloid fibrils with SAP,completely abrogated
same,Protective effect of SAP when MOβDG was included,[1]; MOβDG included in the incubation mixtures with SAP,completely abrogated
same,Effect on binding of DNA by SAP,[5],enhance the binding of DNA by SAP and compete with the interaction at high concentration
same,Inhibition of SAP aggregation,[6],can be inhibited
"NCCOP(=O)(O)O [PE, phosphoethanolamine]",Inhibition of SAP aggregation,[7],can be inhibited
same,Effect on binding of DNA by SAP,[5],enhance the binding of DNA by SAP and compete with the interaction at high concentration
